Results on one molecule are retold here after EP0987268B1, “Pharmaceutical agents containing epothilone A-N-oxide and/or epothilone B-N-oxide” (Gesellschaft für Biotechnologische Forschung mbH (GBF), priority 1998, dated 2000).

For orientation: IC50 means the concentration that inhibits the measured activity by half.

What all share (format): cell-based
In assay [1] the test system is mouse fibroblast L929 (ATCC CCL1). Kind of assay: Cytotoxic activity, L929 cells. The note with it: cell line mouse fibroblast L929 (ATCC CCL1).
For assay [2], the system named is human cervix carcinoma KB 3.1 (DSM ACC 158). As to the kind of experiment: Cytotoxic activity, KB 3.1 cells. The note with it: KB 3-1, cell line human cervix carcinoma KB 3.1 (DSM ACC 158).
Assay [3] concerns human lung carcinoma A-549 (DSM ACC 107). As to the kind of experiment: Cytotoxic activity, A-549 cells. The note with it: A549, cell line human lung carcinoma A-549 (DSM ACC 107).

As for `C/C(=C\c1csc(C)[n+]1[O-])[C@@H]1C[C@@H]2O[C@]2(C)CCC[C@H](C)[C@H](O)[C@@H](C)C(=O)C(C)(C)[C@@H](O)CC(=O)O1` [epothilone B-N-oxide], the results for the IC50 in assay [1], in assay [2] and in assay [3] were 4 nM, 2 nM and 1.5 nM, respectively.
